Test results reported in patent US20030073618A1, “Compounds comprising disulfide-containing peptides and nitrogenous bases, and medical uses thereof” (priority 2001, published 2003).
Marks after values point to notes of the source that are not given here.

Columns and labels:
hepatitis B virus (HBV) [1] = experiment: Efficacy study in acute viral hepatitis B with severe course, 35 patients (Tables 50-53); format: in vivo, human
From the text: (§1) State of patient upon completion of treatment.

hepatitis C virus (HCV) = experiment: Efficacy study in chronic viral hepatitis C, 74 patients (Tables 54-55)
hepatitis B virus (HBV) [2] = experiment: Efficacy study in chronic viral hepatitis B, 62 patients (Tables 47-49); format: in vivo, human; settings: month 1 (after treatment)
From the text: as §1

hepatitis B virus (HBV) [3] = experiment: as above; format: in vivo, human
[4] = month 2 (1 month after treatment)
[5] = month 4 (3 months after treatment)

## C[C@]12C=CC(=O)C=C1CC[C@@H]1[C@@H]2[C@@H](O)C[C@@]2(C)[C@H]1CC[C@]2(O)C(=O)CO [Prednisolone]
Hepatitis B virus (HBV) [1]; Baseline (before treatment)
  ALT in Severe HBV Infection: 1657.9 ± 96.5 U/L
  Bilirubin in Severe HBV Infection: 313.9 ± 62.6 µmol/L
  HbsAg in Severe HBV Infection: 189.7 ± 20.4 ng/mL
  PCR (%) in Severe HBV Infection: 100%
Hepatitis B virus (HBV) [1]; month 1 (after treatment)
  ALT in Severe HBV Infection: **293.8 ± 18.8 U/L
  Bilirubin in Severe HBV Infection: **86.9 ± 21.9 μmole/L
  HbsAg in Severe HBV Infection: **97.8 ± 18.6 ng/mL
  PCR (%) in Severe HBV Infection: **66.7%
Hepatitis B virus (HBV) [1]; [4]
  ALT in Severe HBV Infection: **145.4 ± 15.5 U/L
  Bilirubin in Severe HBV Infection: **31.4 ± 14.6 μmole/L
  HbsAg in Severe HBV Infection: **87.7 ± 12.7 ng/mL
  PCR (%) in Severe HBV Infection: **66.7%
Hepatitis B virus (HBV) [1]; [5]
  ALT in Severe HBV Infection: **65.3 ± 15.7 U/L
  Bilirubin in Severe HBV Infection: **26.84 ± 13.99 μmole/L
  HbsAg in Severe HBV Infection: **76.6 ± 15.4 ng/mL
  PCR (%) in Severe HBV Infection: **53.3%

## Nc1ccn([C@H]2CC[C@@H](CO)O2)c(=O)n1 [Zalzitabin]
Hepatitis C virus (HCV); Baseline (before treatment)
  PCR (%) in Chronic HCV Infection: 100%
Hepatitis C virus (HCV); month 1 (after treatment)
  PCR (%) in Chronic HCV Infection: **73.9* %
Hepatitis C virus (HCV); [4]
  PCR (%) in Chronic HCV Infection: **56.5* %
Hepatitis C virus (HCV); [5]
  PCR (%) in Chronic HCV Infection: **60.9* %

## CC(C)(C)NC(=O)[C@@H]1C[C@@H]2CCCC[C@@H]2CN1C[C@@H](O)[C@H](Cc1ccccc1)NC(=O)[C@H](CC(N)=O)NC(=O)c1ccc2ccccc2n1 [Invirasa]
Hepatitis B virus (HBV) [2]
  ALT in Chronic HBV Infection: **90.8 ± 5.5 U/L
  HbsAg in Chronic HBV Infection: **109.0 ± 54.5 ng/mL
  PCR (%) in Chronic HBV Infection: **70.0* %
Hepatitis B virus (HBV) [3]; Baseline (before treatment)
  ALT in Chronic HBV Infection: 165.7 ± 17.0 U/L
  HbsAg in Chronic HBV Infection: 137.0 ± 20.6 ng/mL
  PCR (%) in Chronic HBV Infection: 100%
Hepatitis B virus (HBV) [3]; [4]
  ALT in Chronic HBV Infection: **71.4 ± 6.5 U/L
  HbsAg in Chronic HBV Infection: **112.2 ± 22.2 ng/mL
  PCR (%) in Chronic HBV Infection: **60.0* %
Hepatitis B virus (HBV) [3]; [5]
  ALT in Chronic HBV Infection: **71.8 ± 7.4 U/L
  HbsAg in Chronic HBV Infection: **172.0 ± 14.5 ng/mL
  PCR (%) in Chronic HBV Infection: **60.0%

## Cc1cn([C@H]2C[C@H](N=[N+]=[N-])[C@@H](CO)O2)c(=O)[nH]c1=O [Retrovir]
Hepatitis C virus (HCV); Baseline (before treatment)
  ALT in Chronic HCV Infection: 180 ± 20.0 U/L
Hepatitis C virus (HCV); month 1 (after treatment)
  ALT in Chronic HCV Infection: **132.0 ± 51.5 U/L
Hepatitis C virus (HCV); [4]
  ALT in Chronic HCV Infection: **108 ± 40.3 U/L
Hepatitis C virus (HCV); [5]
  ALT in Chronic HCV Infection: **90.0 ± 25.2 U/L
